# Experimental data published in ChEMBL document CHEMBL1811789, “Synthesis and biological evaluation of (±)-benzhydrol derivatives as potent non-nucleoside HIV-1 reverse transcriptase inhibitors” (Bioorg Med Chem, 2011).
# Columns and labels:
# [1] = Selectivity index, ratio of CC50 for human C8166 cells to EC50 for wild type HIV1 3B; format: toxicity, cell-based; details: read-out: Ratio CC50/EC50
# [2] = tested on: Human immunodeficiency virus 1; experiment: Antiviral activity against […] HIV1 A17 harboring reverse transcriptase K103N and Y181C mutant infected in human C8166 cells assessed as inhibition of viral-induced cytopathogenicity after 3 days by syncytium formation assay; format: functional, organism-based; details: Human immunodeficiency virus 1, A17, C8166, 72 h
# [3] = tested on: Human immunodeficiency virus 1; experiment: Antiviral activity against wild type HIV1 3B infected in human C8166 cells assessed as inhibition of viral-induced cytopathogenicity after 3 days by syncytium formation assay; format: functional, organism-based; details: Human immunodeficiency virus 1, 3B, C8166, 72 h
# [4] = Cytotoxicity against human C8166 cells by MTT assay; format: cell-based
Structure (SMILES),selectivity ratio [1],EC50 [2],EC50 [3],CC50 [4]
Cc1cc(S(N)(=O)=O)ccc1NC(=O)COc1ccc(Cl)cc1C(=O)c1cc(Cl)cc(C#N)c1,> 563000,0.0014 µM,0.00069 µM,> 387 µM
Cc1cc(S(N)(=O)=O)ccc1NC(=O)COc1ccc(Cl)cc1C(O)c1ccc(Cl)cc1Cl (racemic),13.7,33.6 µM,2.92 µM,39.9 µM
Cc1cc(S(N)(=O)=O)ccc1NC(=O)COc1ccc(Cl)cc1C(O)c1ccccc1 (racemic),29.9,16.5 µM,1.12 µM,33.4 µM
Cc1cc(S(N)(=O)=O)ccc1NC(=O)COc1ccc(Cl)cc1C(O)c1ccccc1C (racemic),28,20.8 µM,1.21 µM,33.9 µM
Cc1cccc(C(O)c2cc(Cl)ccc2OCC(=O)Nc2ccc(S(N)(=O)=O)cc2C)c1 (racemic),69,9.7 µM,0.48 µM,33.1 µM
Cc1ccc(C(O)c2cc(Cl)ccc2OCC(=O)Nc2ccc(S(N)(=O)=O)cc2C)cc1 (racemic),59.3,13.4 µM,0.65 µM,38.7 µM
Cc1cc(S(N)(=O)=O)ccc1NC(=O)COc1ccc(Cl)cc1C(O)c1ccccc1Cl (racemic),24.6,20.4 µM,1.3 µM,32 µM
Cc1cc(S(N)(=O)=O)ccc1NC(=O)COc1ccc(Cl)cc1C(O)c1cccc(Cl)c1 (racemic),46.4,13 µM,0.72 µM,33.2 µM
Cc1cc(S(N)(=O)=O)ccc1NC(=O)COc1ccc(Cl)cc1C(O)c1cccc(F)c1 (racemic),78.5,6.61 µM,0.48 µM,37.6 µM
Cc1cc(S(N)(=O)=O)ccc1NC(=O)COc1ccc(Cl)cc1C(O)c1cccc([N+](=O)[O-])c1 (racemic),313,4.34 µM,0.12 µM,36.9 µM
Cc1cc(S(N)(=O)=O)ccc1NC(=O)COc1ccc(Cl)cc1C(O)c1cccc(C)c1C (racemic),24.1,216 µM,9.02 µM,218 µM
Cc1ccc(C(O)c2cc(Cl)ccc2OCC(=O)Nc2ccc(S(N)(=O)=O)cc2C)c(C)c1 (racemic),6.18,40.4 µM,4.27 µM,26.4 µM
Cc1ccc(C)c(C(O)c2cc(Cl)ccc2OCC(=O)Nc2ccc(S(N)(=O)=O)cc2C)c1 (racemic),43.7,14.3 µM,0.81 µM,35.5 µM
Cc1cc(C)cc(C(O)c2cc(Cl)ccc2OCC(=O)Nc2ccc(S(N)(=O)=O)cc2C)c1 (racemic),166,2.08 µM,0.18 µM,29.4 µM
Cc1cc(S(N)(=O)=O)ccc1NC(=O)COc1ccc(Cl)cc1C(O)c1cc(Cl)ccc1Cl (racemic),34.2,9.58 µM,1.06 µM,36.2 µM
Cc1cc(S(N)(=O)=O)ccc1NC(=O)COc1ccc(Cl)cc1C(O)c1ccc(Cl)c(Cl)c1 (racemic),11.2,31.6 µM,2.15 µM,24 µM
Cc1cc(S(N)(=O)=O)ccc1NC(=O)COc1ccc(Cl)cc1C(O)c1cc(Cl)cc(Cl)c1 (racemic),12.4,9.45 µM,1.06 µM,13.1 µM
Cc1cc(S(N)(=O)=O)ccc1NC(=O)COc1ccc(Cl)cc1C(O)c1cc(Cl)cc(Br)c1 (racemic),42.4,7.79 µM,0.54 µM,22.9 µM
Cc1cc(S(N)(=O)=O)ccc1NC(=O)COc1ccc(Cl)cc1C(O)c1cc(Cl)cc(C#N)c1 (racemic),80.8,6.84 µM,0.39 µM,31.6 µM
Cc1cc(S(N)(=O)=O)ccc1NC(=O)COc1ccc(Cl)cc1C(O)c1cccc2ccccc12 (racemic),80.1,8.47 µM,0.39 µM,31.1 µM
Cc1cc(S(N)(=O)=O)ccc1NC(=O)COc1ccc(Cl)cc1C(O)c1ccc2ccccc2c1 (racemic),14.3,10.7 µM,1.09 µM,15.7 µM
Cc1cn([C@H]2C[C@H](N=[N+]=[N-])[C@@H](CO)O2)c(=O)[nH]c1=O [ZIDOVUDINE],422000,0.023 µM,,
